Assays:
[1] = system: AMPK in human hepatocytes; test: AMPK activation assay in human hepatocytes; assay type: cell-based; conditions: cells preferentially expressing β2 subunit
Procedure: All cell lines were lysed in 0.1 M Tris-HCl, pH 6.8, 2% SDS, 10 mM sodium fluoride (SIGMA #S7920), 10 mM β-glycerophosphate (SIGMA #G6376), and 1 mM sodium vanadate (SIGMA #72060) and supernatant collected after 1 minute at 14,000 rpm. Islets (human and mouse) were lysed in 0.1 M Tris-HCl, pH 6.8, 2% SDS, protease inhibitor (Roche #04 693 124 001) and phosphatase inhibitor (Roche #04 906 837 001). Right calf muscle, heart, iWAT, and interscapular BAT was crushed in a pestle using liquid nitrogen and homogenised in ice cold RIPA buffer (150 mM sodium chloride (SIGMA #S7653), 1.0% NP40 (USB), 0.5% sodium deoxycholate (SIGMA #D6750), 0.1% SDS, 50 mM Tris pH 8.0, 20 mM sodium pyrophosphate (SIGMA #71515), 10 mM sodium fluoride, 10 mM β-glycerolphosphate, 1 mM sodium vanadate and protease inhibitor cocktail (Roche #04693124001), 1 tablet/10 ml lysis buffer). The supernatant was collected after 2 min at 14,000 rpm. This procedure was repeated until all fat was eliminated and the supernatant was clear, at 4° C. Samples were analysed on 4-15% polyacrylamide gels. Values were normalised toward AMPKα, β-Actin, GAPDH or the respective non-phosphorylated counterpart.
Table 3 contains origin of cell lines, growth conditions and settings for activation of AMPK via the test material. […]

[2] = system: DIO mice; test: Prevention of dysglycemia and insulin resistance in DIO B6 mice (oral gavage, 8 w); assay type: in vivo; conditions: 100 mg/kg/day each
Procedure: MATSUDA index was calculated via: […] […] All cell lines were lysed in 0.1 M Tris-HCl, pH 6.8, 2% SDS, 10 mM sodium fluoride (SIGMA #S7920), 10 mM β-glycerophosphate (SIGMA #G6376), and 1 mM sodium vanadate (SIGMA #72060) and supernatant collected after 1 minute at 14,000 rpm. Islets (human and mouse) were lysed in 0.1 M Tris-HCl, pH 6.8, 2% SDS, protease inhibitor (Roche #04 693 124 001) and phosphatase inhibitor (Roche #04 906 837 001). […] The supernatant was collected after 2 min at 14,000 rpm. This procedure was repeated until all fat was eliminated and the supernatant was clear, at 4° C. Samples were analysed on 4-15% polyacrylamide gels. Values were normalised toward AMPKα, β-Actin, GAPDH or the respective non-phosphorylated counterpart. For RNA purification calf muscle, iWAT, interscapular BAT, and left lateral liver lobe was crushed in a pestle using liquid nitrogen before turning to respective RNA kit. RNA from liver was prepared using Total RNA isolation Nucleospin II Kit (Macherey-Nagel #740955.50). RNA from adipose tissue was prepared using RNeasy Lipid Tissue Mini kit (Qiagen #74804). RNA from calf muscle tissue was prepared using RNeasy Fibrous Tissue Mini kit (Qiagen #74704). First strand cDNA synthesis was done using SuperScript III (First-Strand Synthesis SuperMix for qRT-PCR, Invitrogen #11752-250) according to the manufacturer's instructions. Total RNA was prepared from isolated islets using RNeasy Micro Kit (Qiagen #74004) and first strand cDNA synthesis was done using Superscript III (Invitrogen #18080-051) according to the manufacturer's instructions. Quantification of mRNA expression levels was performed essentially as previously described (Reference 3).

[3] = system: AMPK; test: SAMS peptide AMPK activity assay; assay type: biochemical; conditions: 2.5, 5 or 10 μM
Procedure: 50 ng AMPK (Upstate #14-305) was mixed in various combination with 2.5, 5 or 10 μM test material or 20 μM AMP (Sigma #A2002) in buffer (40 mM Hepes pH7.45, 0.5 mM DTT, 2 mM MgCl2, 0.1% DMSO). In all settings 10 μg SAMS and 0.03 μCi/μl ^32P ATP (Perkin Elmer #NEG502Z500UC) were added. Total reaction volume was 25 μl, all components mixed on ice and the reaction carried out at 37° C., 15 minutes, before terminated with 5 μl phosphoric acid, and placed back on ice. 25 μl reaction were dried in on Whatman P81 filters, 50° C., 2 minutes, washed 3 times in 250 ml 1% phosphoric acid, 2 minutes, before added to 4 ml liquid scintillation cocktail (Perkin Elmer #1200-437) and counted, 1 minute, in a Wallac 1414 beta counter. The radioactivity correlates to enzyme activity.

O=C(Nc1nc(=O)n(Cc2ccc(Cl)cc2)s1)c1ccc(Cl)cc1 [test material, 4-chloro-N-[2-[(4-chlorophenyl)methyl]-3-oxo-1,2,4-thiadiazol-5-yl]benzamide]
pAMPK [1]: increased pAMPK | HFD-provoked increase in fasted glucose ([2]; oral gavage, 6 w): averted the HFD-provoked increase | HFD-provoked increase in fasted plasma insulin ([2]; oral gavage, 6 w): averted the HFD-provoked increase | insulin resistance (HOMA-IR) ([2]; oral gavage, vs vehicle): did not develop insulin resistance | Glut1 mRNA levels in calf muscle ([2]; 8 w): increased Glut1 mRNA levels | Txnip mRNA levels in calf muscle ([2]; 8 w): reduced Txnip mRNA levels | pAMPK in calf muscle ([2]; 8 w): significantly increased pAMPK | allosteric activation of AMPK [3]: did not allosterically activate AMPK
